According to patent US6737383B1, “Herbicidal oxadiazolidines” (priority 1999, dated 2004):

Key:
[1] = system: bedstraw; experiment: Test B pre/postemergence bedstraw; format: in vivo, Galium aparine; settings: for Plant response rating, Bedstraw: Postemergence
Procedure, shortened: (§1)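 Test chemicals in a non-phytotoxic solvent mixture with surfactant were sprayed preemergence onto planted seeds and postemergence onto plants 2 to 18 cm tall (1- to 4-leaf stage). After twelve to sixteen days in a greenhouse, injury was visually rated against untreated controls from 0 (no effect) to 10 (complete control).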

[2] = system: blackgrass; experiment: Test B pre/postemergence blackgrass; format: in vivo, Alopecurus myosuroides
Procedure, shortened: as §1

[3] = system: surinam grass; experiment: Test B pre/postemergence surinam grass; format: in vivo, Brachiaria decumbens
Procedure, shortened: as §1

[4] = system: cocklebur; experiment: Test B pre/postemergence cocklebur; format: in vivo, Xanthium strumarium
Procedure, shortened: as §1

[5] = system: corn; experiment: Test B pre/postemergence corn; format: in vivo, Zea mays
Procedure, shortened: as §1

[6] = system: crabgrass; experiment: Test B pre/postemergence crabgrass; format: in vivo, Digitaria sanguinalis
Procedure, shortened: as §1

[7] = system: giant foxtail; experiment: Test B pre/postemergence giant foxtail; format: in vivo, Setaria faberii
Procedure, shortened: as §1

[8] = system: morningglory; experiment: Test B pre/postemergence morningglory; format: in vivo, Ipomoea hederacea
Procedure, shortened: as §1

[9] = system: pigweed; experiment: Test B pre/postemergence pigweed; format: in vivo, Amaranthus retroflexus; settings: for Plant response rating, Redroot pigweed: Postemergence
Procedure, shortened: as §1

[10] = system: rape; experiment: Test B pre/postemergence rape; format: in vivo, Brassica napus
Procedure, shortened: as §1

[11] = system: soybean; experiment: Test B pre/postemergence soybean; format: in vivo, Glycine max; settings: for Plant response rating, Soybean: Postemergence
Procedure, shortened: as §1

[12] = system: sugar beet; experiment: Test B pre/postemergence sugar beet; format: in vivo, Beta vulgaris; settings: for Plant response rating, Sugarbeets: Postemergence
Procedure, shortened: as §1

[13] = system: velvetleaf; experiment: Test B pre/postemergence velvetleaf; format: in vivo, Abutilon theophrasti; settings: for Plant response rating, Velvetleaf: Postemergence
Procedure, shortened: as §1

[14] = system: wheat; experiment: Test B pre/postemergence wheat; format: in vivo, Triticum aestivum; settings: for Plant response rating, Wheat: Postemergence
Procedure, shortened: as §1

[15] = system: wild oat; experiment: Test B pre/postemergence wild oat; format: in vivo, Avena fatua; settings: for Plant response rating, Wild oats: Postemergence
Procedure, shortened: as §1

[16] = system: purple nutsedge; experiment: Test B pre/postemergence purple nutsedge; format: in vivo, Cyperus rotundus
Procedure, shortened: as §1

[17] = Rate 500 g/ha, scale of 0 to 10 where 0 is no effect and 10 is complete control
[18] = Preemergence, Rate 62 g/ha, scale 0 to 10 (0 no effect, 10 complete control)
[19] = Preemergence, Rate 125 g/ha, scale 0 to 10, 0 is no effect, 10 is complete control
[20] = Preemergence, Rate 500 g/ha, scale of 0 to 10 where 0 is no effect and 10 is complete control
[21] = Rate 250 g/ha, scale of 0 to 10 where 0 is no effect and 10 is complete control
[22] = Postemergence, Rate 62 g/ha, scale of 0 to 10, 0 is no effect, 10 is complete control
[23] = Postemergence, Rate 125 g/ha, scale 0 to 10, 0 is no effect, 10 is complete control
[24] = Postemergence, Rate 500 g/ha, scale of 0 to 10 where 0 is no effect and 10 is complete control
[25] = Rate 250 g/ha, Postemergence, scale of 0 to 10 where 0 is no effect and 10 is complete control

CC(=O)C(C)n1c(=O)on(C(=O)N(c2ccccc2)C(C)C)c1=O (centres unmarked) [Compound 576]
7: Plant response rating, Blackgrass [2, 24] | Plant response rating, Giant foxtail [7, 25] | Rape plant response rating [10, 20]
3: Blackgrass plant response rating [2, 19] | B. signalgrass plant response rating [3, 19] | Crabgrass plant response rating [6, 23] | Giant foxtail plant response rating [7, 23] | Plant response rating, Soybean [11, 21] | Velvetleaf plant response rating [13, 20] | Wild oats plant response rating (0 to 10 scale) ([15]; Preemergence, Rate 250 g/ha)
10: Redroot pigweed plant response rating (0 to 10 scale) ([9]; Preemergence, Rate 250 g/ha) | Redroot pigweed plant response rating [9, 20]
0: Bedstraw plant response rating [1, 18] | Bedstraw plant response rating [1, 19] | Bedstraw plant response rating (0 to 10 scale) ([1]; Preemergence, Rate 250 g/ha) | Bedstraw plant response rating [1, 20] | Blackgrass plant response rating [2, 22] | Blackgrass plant response rating [2, 23] | Blackgrass plant response rating [2, 18] | B. signalgrass plant response rating [3, 22] | B. signalgrass plant response rating [3, 23] | B. signalgrass plant response rating [3, 18] | Plant response rating, B. signalgrass [3, 25] | Cocklebur plant response rating [4, 22] | Cocklebur plant response rating [4, 23] | Plant response rating, Cocklebur [4, 24] | Cocklebur plant response rating [4, 18] | Cocklebur plant response rating [4, 19] | Cocklebur plant response rating (0 to 10 scale) ([4]; Preemergence, Rate 250 g/ha) | Cocklebur plant response rating [4, 20] | Plant response rating, Cocklebur [4, 25] | Corn plant response rating [5, 22] | Corn plant response rating [5, 23] | Corn plant response rating [5, 18] | Corn plant response rating [5, 19] | Corn plant response rating (0 to 10 scale) ([5]; Preemergence, Rate 250 g/ha) | Crabgrass plant response rating [6, 18] | Morningglory plant response rating [8, 18] | Morningglory plant response rating [8, 19] | Morningglory plant response rating (0 to 10 scale) ([8]; Preemergence, Rate 250 g/ha) | Morningglory plant response rating [8, 20] | Redroot pigweed plant response rating [9, 18] | Plant response rating, Redroot pigweed [9, 21] | Rape plant response rating [10, 22] | Rape plant response rating [10, 23] | Plant response rating, Rape [10, 24] | Rape plant response rating [10, 18] | Rape plant response rating [10, 19] | Plant response rating, Rape [10, 25] | Soybean plant response rating [11, 18] | Soybean plant response rating [11, 19] | Soybean plant response rating (0 to 10 scale) ([11]; Preemergence, Rate 250 g/ha) | Soybean plant response rating [11, 20] | Plant response rating, Sugarbeets [12, 17] | Sugarbeets plant response rating [12, 18] | Sugarbeets plant response rating [12, 19] | Plant response rating, Sugarbeets [12, 21] | Plant response rating, Velvetleaf [13, 17] | Velvetleaf plant response rating [13, 18] | Velvetleaf plant response rating [13, 19] | Velvetleaf plant response rating (0 to 10 scale) ([13]; Preemergence, Rate 250 g/ha) | Plant response rating, Velvetleaf [13, 21] | Plant response rating, Wheat [14, 17] | Wheat plant response rating [14, 18] | Plant response rating, Wheat [14, 21] | Plant response rating, Wild oats [15, 17] | Wild oats plant response rating [15, 18] | Wild oats plant response rating [15, 19] | Plant response rating, Wild oats [15, 21] | Nutsedge plant response rating [16, 22] | Nutsedge plant response rating [16, 23] | Nutsedge plant response rating [16, 18] | Nutsedge plant response rating [16, 19] | Nutsedge plant response rating (0 to 10 scale) ([16]; Preemergence, Rate 250 g/ha) | Plant response rating, Nutsedge [16, 25]
6: Blackgrass plant response rating (0 to 10 scale) ([2]; Preemergence, Rate 250 g/ha) | B. signalgrass plant response rating (0 to 10 scale, 0 is no effect, 10 is complete control) ([3]; Preemergence, Rate 250 g/ha) | Sugarbeets plant response rating [12, 20] | Wheat plant response rating [14, 19]
5: Plant response rating, Bedstraw [1, 21]
2: Plant response rating, Blackgrass [2, 25] | Plant response rating, B. signalgrass [3, 24] | Corn plant response rating [5, 20] | Plant response rating, Corn [5, 25] | Crabgrass plant response rating [6, 22] | Giant foxtail plant response rating [7, 22] | Giant foxtail plant response rating [7, 18] | Morningglory plant response rating [8, 22] | Morningglory plant response rating [8, 23] | Rape plant response rating (0 to 10 scale) ([10]; Preemergence, Rate 250 g/ha)
8: Plant response rating, Giant foxtail [7, 24] | Wheat plant response rating (0 to 10 scale) ([14]; Preemergence, Rate 250 g/ha) | Wheat plant response rating [14, 20] | Wild oats plant response rating [15, 20] | Nutsedge plant response rating [16, 20]
9: Plant response rating, Bedstraw [1, 17] | Blackgrass plant response rating [2, 20] | B. signalgrass plant response rating [3, 20] | Plant response rating, Crabgrass [6, 24] | Crabgrass plant response rating (0 to 10 scale) ([6]; Preemergence, Rate 250 g/ha) | Crabgrass plant response rating [6, 20] | Plant response rating, Crabgrass [6, 25] | Giant foxtail plant response rating (0 to 10 scale) ([7]; Preemergence, Rate 250 g/ha) | Giant foxtail plant response rating [7, 20] | Redroot pigweed plant response rating [9, 19]
4: Plant response rating, Corn [5, 24] | Crabgrass plant response rating [6, 19] | Giant foxtail plant response rating [7, 19] | Plant response rating, Morningglory [8, 24] | Plant response rating, Morningglory [8, 25] | Plant response rating, Redroot pigweed [9, 17] | Plant response rating, Soybean [11, 17] | Sugarbeets plant response rating (0 to 10 scale) ([12]; Preemergence, Rate 250 g/ha)
